Data set [1] concerns A549 (lung adenocarcinoma). Briefly: MTT proliferation assay, A549. Type of data set: cell-based. Conditions: Homo sapiens, 72 h. Summed up:
(§1)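 5000 cells/well, DMEM + 10% FBS; compound added at 24 h, 0.01–100 μM, 72 h, 37 °C/5% CO2. MTT 3 h, DMSO, OD 570 nm → % growth (NIH protocol) → IC50 by regression.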
A general note: Tetrazolium assays rely on reduction of a dye to a coloured formazan, in cell work by metabolically active cells.

The test system of data set [2] is CFPAC-1 (ductal pancreatic adenocarcinoma). In words: MTT proliferation assay, CFPAC-1. Format: cell-based. Conditions: Homo sapiens, 72 h. Put shortly:
as §1

Data set [3] deals with HCT-116 (colorectal carcinoma). Briefly: MTT proliferation assay, HCT-116. Type of data set: cell-based. Particulars: Homo sapiens, 72 h. Put shortly: as §1
Data set [4] deals with HeLa (cervical carcinoma). Briefly: MTT proliferation assay, HeLa. Type of data set: cell-based. Conditions: Homo sapiens, 72 h. Summed up:
as §1

Data set [5] relates to HepG2 (hepatocellular carcinoma). Briefly: MTT proliferation assay, HepG2. Particulars: Homo sapiens, 72 h. Type of data set: cell-based. Put shortly: as §1
Data set [6] concerns MCF-7 (breast adenocarcinoma). Briefly: MTT proliferation assay, MCF-7. Type of data set: cell-based, Human. Conditions: Homo sapiens, MCF7; 72 h, MTT. Put shortly:
as §1

Data set [7] concerns SW620 (colorectal adenocarcinoma, metastatic). Briefly: MTT proliferation assay, SW620. Format: cell-based. Conditions: Homo sapiens, SW-620, 72 h. Summed up: as §1
The subject of data set [8] is HFF-1 (foreskin fibroblasts). In words: MTT proliferation assay, HFF-1. Type of data set: cell-based. Particulars: Homo sapiens, 72 h, normal foreskin fibroblasts. As for the experimental part:
(§2) Human tumor cell lines HeLa (cervical carcinoma), SW620 (colorectal adenocarcinoma, metastatic), A549 (lung adenocarcinoma), MCF−7 (breast adenocarcinoma), CFPAC-1 (pancreatic adenocarcinoma, metastatic), HCT-116 (colorectal carcinoma), and HepG2 (hepatocellular carcinoma), and normal cell lines HFF-1 (foreskin fibroblasts) and WI-38 (immortalized human lung fibroblast), were from the US American Type Culture Collection (ATCC, Manassas, VA, USA). Cells were cultured in a liquid nutrient medium (Dulbecco’s Modified Eagle Medium, LONZA, Basel, Switzerland) supplemented with 10% fetal bovine serum (FBS, Gibco, Grand Island, NY, USA), 2 mM L-glutamine (GIBCO, Grand Island, NY, USA), 100 μg/mL penicillin, and 100 μg/mL streptomycin (LONZA, Basel, Switzerland), in an incubator (NÜVE, Ankara, Turkey), at a humid atmosphere with 5% CO2 at 37 °C. Trypsin/EDTA Solution (Lonza, Basel, Switzerland), was used for cell passaging and cell detachment.
(§3) Adherent cells were seeded on 96 well microtiter plates (Falcon, New York, NY, USA) at a seeding density of 5000 cells per well, added in 150 μL of cell suspension in a nutrient medium. 24 h after seeding, cells were treated with compound 4b–4g, 4i, 4k–4t, 4v, 7c–7g, and 7i–7q dilutions in the range of 0.01 μM to 100 μM. L-ascoric acid (Sigma Aldrich, Darmstadt, Germany) and Carboxyamidotriazole (Sigma Aldrich, Darmstadt, Germany) were used as control compounds. Incubation of the cells with the compounds were performed for 72 h in a 5% CO2, in humid atmosphere at 37 °C. After incubation, nutrient medium was removed and 40 μL of the MTT reagent ([…]-2,5-diphenyltetrazole bromide (Invitrogen, Carlsbad, CA, USA) was added to each well. 3 h after incubation, 160 μL of DMSO (VWR CHEMICALS, Radnor, PA, USA) were added to each well to dissolve the crystals of purple formazane. The absorbance was measured at 570 nm (TECAN SUNRISE Microtiter plate reader (Männedorf, Switzerland). The experimentally measured optical densities (OD) were converted to the PG (percentage of growth), using the formulas according to the protocol assumed by NIH (National Institute of Health). The IC50 values (concentration causing 50% cell growth inhibition) for each compound were calculated by regression analysis of the survival count curve of the concentrations of the tested compounds. The results were processed in Excel 2010 (Microsoft, Redmond, WA, USA).

Data set [9] relates to tested cell lines (A549, CFPAC-1, HCT-116, HeLa, HepG2, MCF-7, SW620, WI-38, HFF-1). In words: MTT proliferation assay, whole tested cell panel. Format: cell-based, Human. Particulars: 0.01 µM to 100 µM, 72 h. As for the experimental part: The C-6 substituted 1,2,3-triazole derivatives of L-ASA within the C5-OH group ([…], 4i, 4k−4t, and 4v) and with the C4=C5 double bond (7c−7g and 7i−7q) were evaluated against seven malignant tumor cell lines: lung adenocarcinoma (A549), ductal pancreatic adenocarcinoma (CFPAC-1), colorectal carcinoma (HCT-116), cervical carcinoma (HeLa), hepatocellular carcinoma (HepG2), breast adenocarcinoma (MCF-7), colorectal adenocarcinoma, and metastatic (SW620); as well as normal cell lines: lung fibroblasts (WI-38) and foreskin fibroblasts (HFF-1) (Table 3, Table S1, Supplementary Information). L-ASA was used as a positive control, and carboxyamidotriazole, a known antiproliferative agent that inhibits tumor cell growth, invasion, and metastasis, and 5-fluorouracil (5-FU), were used as reference compounds.
as §2, §3

The nature of data set [10]: DPPH radical scavenging assay. Format: biochemical. Summed up:
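Compounds at 0.06, 0.12, 0.18, 0.23, 0.25 and 0.28 mM reacted with the stable DPPH• radical. Absorbance at 517 nm was read 5 and 10 min after mixing to follow DPPH reduction, with L-ascorbic acid as the reference.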
On the technique in general: The DPPH test is a chemical assay of radical scavenging.

Another data set concerns WI-38 (lung fibroblasts). Briefly: MTT proliferation assay, WI-38. Format: cell-based. Conditions: Homo sapiens, 72 h, normal lung fibroblasts. Put shortly: as §1
Where [11] appears, read: 5 min treatment, read-out: IC50 of DPPH• inhibition, Treatm. 5 min.
The mark [12] stands for this setting: 10 min treatment, read-out: IC50 of DPPH• inhibition, Treatm. 10 min.

This is an account of results in PMC6801448, “The Antioxidant and Antiproliferative Activities of 1,2,3-Triazolyl-L-Ascorbic Acid Derivatives” (International Journal of Molecular Sciences, 2019).

For orientation: IC50 means the concentration that gives 50% inhibition. In general, melting point refers to the temperature, or range, at which the solid turns liquid.

Like-named read-outs stand apart in the source and are kept apart here.

`NC(=O)c1nnn(Cc2cc(Cl)c(C(=O)c3ccc(Cl)cc3)c(Cl)c2)c1N` [Carboxyamidotriazole, carboxyamidotriazole, reference compound]: the IC50 in data set [1] worked out at 51.6 µM; in data set [2] it was 41.6 µM; in data set [3] it was 19.9 µM; in data set [4] it was 31.8 µM; in data set [5], 40.1 µM; in [6], 14.7 µM. The half-inhibitory concentration (IC50) stood at 41.3 µM in data set [7] and 32.6 µM in data set [8]. In data set [9], the “antiproliferative / cytotoxic effect on the tested cell lines (in words)” value (“antiproliferative / cytotoxic effect” below) is listed as “non-selective, moderate antiproliferative effect”.

With `O=C1O[C@H]([C@@H](O)Cn2ccnn2)C(O)=C1O` [Compound 4b, 6-deoxy-6-(1,2,3-triazol-1-yl)-L-ascorbic acid], the melting point is 219 to 221 °C. Further, the IC50 in data set [10] (setting [11]) was determined as 130 µM. In data set [10] (setting [12]), the 50% inhibitory concentration (IC50) came out at 130 µM. The compound further displayed an IC50 in data set [1] of over 100 µM. In [2], this compound returned a half-inhibitory concentration (IC50) of over 100 µM. Further, the IC50 in data set [3] is over 100 µM. In addition, the IC50 in data set [4] was over 100 µM. This compound displayed a 50% inhibitory concentration (IC50) in [5] of over 100 µM. The IC50 in data set [6] was over 100 µM. In addition, the 50% inhibitory concentration (IC50) in data set [7] was over 100 µM. Moreover, the IC50 in the data set on WI-38 (lung fibroblasts) was over 100 µM. For the same compound, in [9], the “antiproliferative / cytotoxic effect” value is “not cytotoxic”.

Turning to `O=C1O[C@H]([C@@H](O)Cn2cc(-c3cc(F)cc(F)c3)nn2)C(O)=C1O` [Compound 4d, 6-deoxy-6-[4-(3,5-difluorophenyl)-1,2,3-triazol-1-yl]-L-ascorbic acid], the melting point is 189 to 191 °C. The concentration for half-maximal inhibition (IC50) in [10] (setting [11]) amounted to 270 ± 10 µM. Besides, in [10] (setting [12]), the IC50 is 270 µM. Moreover, the concentration for half-maximal inhibition (IC50) in data set [1] stood at 81.7 µM. For the same compound, in data set [2], the concentration for half-maximal inhibition (IC50) came out at 75.8 µM. It took 64.8 µM to reach half-maximal inhibition in data set [3] (IC50). This compound came in with a half-inhibitory concentration (IC50) in data set [4] of 56.8 µM. The same compound displayed a concentration for half-maximal inhibition (IC50) in data set [5] of 95.3 µM. The compound also gave an IC50 in data set [6] of 39.8 µM. The same compound displayed an IC50 in [7] of 92 µM. This compound also registered an IC50 with WI-38 (lung fibroblasts) of over 100 µM. The IC50 in [8] was 0.12 µM. Moreover, in [9], the “antiproliferative / cytotoxic effect” value is given as “nonspecific cytostatic effect”.

`Cc1ccc(-c2cn(C[C@H](O)[C@H]3OC(=O)C(O)=C3O)nn2)cc1` [Compound 4f, 6-deoxy-6-[4-tolyl-1,2,3-triazol-1-yl]-L-ascorbic acid]: the melting point is 152 to 154 °C. In data set [10] (setting [11]), the IC50 was determined as 200 ± 20 µM. In addition, the IC50 in data set [10] (setting [12]) was determined as 140 ± 10 µM. This compound also showed a half-maximal inhibitory concentration (IC50) in data set [1] of over 100 µM. This compound displayed a half-maximal inhibitory concentration (IC50) in data set [2] of over 100 µM. This compound also showed an IC50 in data set [3] of over 100 µM. This compound came in with an IC50 in data set [4] of over 100 µM. The compound also gave an IC50 in data set [5] of over 100 µM. In addition, the concentration for half-maximal inhibition (IC50) in [6] was over 100 µM. Moreover, the IC50 in data set [7] was over 100 µM. Also, in the data set with WI-38 (lung fibroblasts), the IC50 is over 100 µM. In [8], the concentration for half-maximal inhibition (IC50) is 69.3 µM. The “antiproliferative / cytotoxic effect” value in data set [9] is on record as “did not show any cytotoxic effects”.

As for `COc1ccc(-c2cn(C[C@H](O)[C@H]3OC(=O)C(O)=C3O)nn2)cc1` [Compound 4g, 6-deoxy-6-[4-methoxyphenyl-1,2,3-triazol-1-yl]-L-ascorbic acid], the concentration for half-maximal inhibition (IC50) in data set [10] (setting [11]) was 190 ± 10 µM; in data set [10] (setting [12]), 190 ± 10 µM; in [1], over 100 µM; in [2] it was over 100 µM; in [3], over 100 µM; in data set [4], over 100 µM. In addition, the 50% inhibitory concentration (IC50) (in [5]; in data set [6]; in [7]; in the data set on WI-38 (lung fibroblasts); in [8]) was over 100 µM throughout. Further, in data set [9], the “antiproliferative / cytotoxic effect” value is “did not show any cytotoxic effects”.
